Assay results taken from patent publication US7288566B2, “N-hydroxyformamidine derivatives” (Taisho Pharmaceutical Co., Ltd., priority 2002, dated 2007).

Target: Human Kidney Microsome-derived 20-HETE-producing Enzyme
Assay: Inhibitory effect against human kidney microsome-derived 20-HETE-producing enzyme
Type: biochemical
Conditions: human kidney microsomal fraction, tritium-arachidonic acid substrate, NADPH, 37° C. for 1.5 hours, pH 7.4; read-out: IC50 (50% inhibition of 20-HETE production)
Description: Inhibitory Effect Against Human Kidney Microsome-derived 20-HETE-producing Enzyme
The compounds listed in the table above were tested for their inhibitory effect against 20-HETE production.
This test was performed as described in J. Pharmacol. Exp. Ther., vol. 268, p. 474, 1994.
A test drug solution adjusted with DMSO to 1 μM was added to 50 mM 3-morpholinopropanesulfonate (MOPS) buffer (pH 7.4) containing 5 mM magnesium chloride and 1 mM ethylenediaminetetraacetic acid disodium salt (EDTA). The resulting mixture was further supplemented with a human kidney microsomal fraction (Human Cell Culture Center, Anatomic Gift Foundation) as an enzyme source, [5,6,8,9,11,12,14,15]tritium-arachidonic acid as a substrate, and NADPH as a coenzyme, followed by reaction at 37° C. for 1.5 hours. After addition of formic acid to stop the reaction, the reaction mixture was supplemented with acetonitrile (final concentration: 50%). The level of 20-HETE production was measured by high performance liquid chromatography using an ODS column (Biosil C18, BioRad Laboratories) and a radioisotope detector. Assuming that the level of 20-HETE production in the absence of a test compound was set to 100%, the concentration required for the test compound to cause 50% inhibition of 20-HETE production was calculated (IC50 value).

IC50: 10.5 nM
Compound: CN(C)CC(C)(C)CCc1ccc(N/C=N/O)cc1 [Example 1, N-[4-(4-N,N-dimethylamino-3,3-dimethyl-butyl)phenyl]-N′-hydroxyformamidine]
